The source made the active and inactive calls.
Experiments:
[1] = molecular target: T1, Sentrin-specific protease 7 (Homo sapiens, UniProt Q9BQF6); assay type: functional;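 note: Luminescence-based dose-response confirmation of ultra-high-throughput screening hits, measuring inhibition of SENP7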
T1 sequence (Q9BQF6 whole entry): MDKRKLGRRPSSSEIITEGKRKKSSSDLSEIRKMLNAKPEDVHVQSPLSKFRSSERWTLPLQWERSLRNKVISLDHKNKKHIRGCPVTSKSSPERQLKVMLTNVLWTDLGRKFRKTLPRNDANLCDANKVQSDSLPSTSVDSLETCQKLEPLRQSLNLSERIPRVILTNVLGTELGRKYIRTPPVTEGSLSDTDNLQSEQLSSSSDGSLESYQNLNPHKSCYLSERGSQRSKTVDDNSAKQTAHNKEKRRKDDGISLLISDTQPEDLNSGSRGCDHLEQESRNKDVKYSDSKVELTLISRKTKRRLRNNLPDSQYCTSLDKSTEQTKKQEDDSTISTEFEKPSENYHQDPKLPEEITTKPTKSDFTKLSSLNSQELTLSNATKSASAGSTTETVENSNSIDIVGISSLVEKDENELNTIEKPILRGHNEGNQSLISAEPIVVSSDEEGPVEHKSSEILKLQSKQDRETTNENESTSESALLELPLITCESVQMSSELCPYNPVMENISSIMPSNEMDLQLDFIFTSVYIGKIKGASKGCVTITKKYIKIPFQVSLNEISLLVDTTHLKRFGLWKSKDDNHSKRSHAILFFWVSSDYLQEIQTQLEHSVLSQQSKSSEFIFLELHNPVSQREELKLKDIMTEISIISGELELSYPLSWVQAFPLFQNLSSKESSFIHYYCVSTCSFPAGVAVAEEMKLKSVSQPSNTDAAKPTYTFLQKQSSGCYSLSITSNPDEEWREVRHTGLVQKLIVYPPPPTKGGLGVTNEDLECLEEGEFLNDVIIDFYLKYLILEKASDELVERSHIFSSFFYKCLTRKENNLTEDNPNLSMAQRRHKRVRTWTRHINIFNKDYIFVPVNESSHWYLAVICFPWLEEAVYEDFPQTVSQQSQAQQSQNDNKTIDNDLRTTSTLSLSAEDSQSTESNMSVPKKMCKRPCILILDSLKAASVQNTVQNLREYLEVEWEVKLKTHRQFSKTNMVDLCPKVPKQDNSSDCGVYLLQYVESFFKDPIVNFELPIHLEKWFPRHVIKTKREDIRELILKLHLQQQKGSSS

[2] = system: Streptococcus sp. 'group A'; assay: growth inhibition of control SK(-) GAS strain, dose response, counter-screen for streptokinase expression inhibitor project, luminescence, kanamycin, BacTiterGlo, confirmation (AID 1900); assay type: functional, organism-based
Streptokinase A = molecular target: T2, Streptokinase A (Streptococcus pyogenes serotype M1, UniProt P10520); assay: S. pyogenes streptokinase expression inhibitors, potency, dose response, plasminogen activation absorbance, OD405 (AID 1914); assay type: functional, Streptococcus pyogenes M1 GAS;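 note: secreted streptokinase activity via plasminogen activation per viability signal from cell pellet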
T2 sequence (P10520 whole entry): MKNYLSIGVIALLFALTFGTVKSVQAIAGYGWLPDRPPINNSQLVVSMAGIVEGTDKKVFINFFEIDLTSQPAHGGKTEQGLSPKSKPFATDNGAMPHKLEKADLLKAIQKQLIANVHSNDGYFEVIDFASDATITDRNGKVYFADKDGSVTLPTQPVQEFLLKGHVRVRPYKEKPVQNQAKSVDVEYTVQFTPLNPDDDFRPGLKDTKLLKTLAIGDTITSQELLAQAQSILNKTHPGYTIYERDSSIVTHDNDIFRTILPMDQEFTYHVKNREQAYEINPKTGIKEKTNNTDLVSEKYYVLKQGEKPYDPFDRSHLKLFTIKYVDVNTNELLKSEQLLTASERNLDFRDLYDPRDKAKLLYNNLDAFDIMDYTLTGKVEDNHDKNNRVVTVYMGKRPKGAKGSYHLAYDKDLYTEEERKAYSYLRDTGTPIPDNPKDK

[3] = NIH-3T3 fibroblast cytotoxicity, dose response, cytotoxicity control, cell-based, fluorescence, Alamar Blue, secondary assay (AID 2327); assay type: functional;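 note: NIH-3T3 mouse fibroblasts cultured with fluconazole at 8 µg/mL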
[4] = molecular target: T3, Sentrin-specific protease 6 (Homo sapiens, UniProt Q9GZR1); assay type: functional;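 note: Luminescence-based dose-response confirmatory assay of SENP6 inhibition, following up an ultra-high-throughput screen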
T3 sequence (Q9GZR1 whole entry): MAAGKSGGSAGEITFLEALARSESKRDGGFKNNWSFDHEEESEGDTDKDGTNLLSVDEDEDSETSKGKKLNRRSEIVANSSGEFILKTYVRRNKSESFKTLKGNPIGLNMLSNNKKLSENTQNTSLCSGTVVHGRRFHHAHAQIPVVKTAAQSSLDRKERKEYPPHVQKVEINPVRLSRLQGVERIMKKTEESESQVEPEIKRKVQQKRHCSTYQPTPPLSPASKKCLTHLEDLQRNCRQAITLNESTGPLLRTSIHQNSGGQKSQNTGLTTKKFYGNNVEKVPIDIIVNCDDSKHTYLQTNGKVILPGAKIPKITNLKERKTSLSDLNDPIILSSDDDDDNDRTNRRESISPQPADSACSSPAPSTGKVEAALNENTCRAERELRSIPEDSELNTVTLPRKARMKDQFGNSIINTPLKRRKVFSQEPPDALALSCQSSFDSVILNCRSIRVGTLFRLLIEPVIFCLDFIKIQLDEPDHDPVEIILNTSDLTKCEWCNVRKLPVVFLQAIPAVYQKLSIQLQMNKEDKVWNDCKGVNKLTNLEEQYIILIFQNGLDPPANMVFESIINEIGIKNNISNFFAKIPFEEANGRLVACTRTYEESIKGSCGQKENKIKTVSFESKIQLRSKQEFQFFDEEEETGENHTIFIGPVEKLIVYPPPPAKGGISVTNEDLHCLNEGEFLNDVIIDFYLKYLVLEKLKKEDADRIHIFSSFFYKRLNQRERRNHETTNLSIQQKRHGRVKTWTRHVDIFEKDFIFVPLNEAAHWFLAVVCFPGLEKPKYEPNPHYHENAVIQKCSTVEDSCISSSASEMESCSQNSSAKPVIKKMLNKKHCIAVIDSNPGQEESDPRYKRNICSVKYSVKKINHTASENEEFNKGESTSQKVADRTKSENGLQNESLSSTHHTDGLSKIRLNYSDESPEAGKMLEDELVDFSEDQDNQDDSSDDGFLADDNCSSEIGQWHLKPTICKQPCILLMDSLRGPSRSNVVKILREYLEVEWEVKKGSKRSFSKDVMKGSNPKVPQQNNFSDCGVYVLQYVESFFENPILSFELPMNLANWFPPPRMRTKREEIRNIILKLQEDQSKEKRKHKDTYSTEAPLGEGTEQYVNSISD

Caspase-3 = molecular target: T4, Caspase-3 (Homo sapiens, UniProt P42574); assay type: functional;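 note: Dose-response selectivity test against caspase-3 for candidate inhibitors of sentrin-specific proteases (SENPs)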
T4 sequence (P42574 whole entry): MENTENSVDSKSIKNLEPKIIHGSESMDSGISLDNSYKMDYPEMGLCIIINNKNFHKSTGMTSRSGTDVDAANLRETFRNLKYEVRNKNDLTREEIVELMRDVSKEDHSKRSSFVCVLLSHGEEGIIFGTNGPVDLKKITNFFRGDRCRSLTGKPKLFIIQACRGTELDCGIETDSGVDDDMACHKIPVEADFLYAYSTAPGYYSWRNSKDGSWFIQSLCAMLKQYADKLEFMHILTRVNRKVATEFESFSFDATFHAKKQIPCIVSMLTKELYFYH

Streptococcus = assay: Group A Streptococcus viability loss, dose response, counter-screen for streptokinase expression inhibitor project, luminescence, BacTiterGlo (AID 1915); assay type: functional, organism-based;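 note: potency for reduction of bacterial viability or growth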
[5] = C. albicans growth with fluconazole, confirmation, fluorescence, retest (AID 2467); assay type: functional, cell-based
[6] = molecular target: T5, Sentrin-specific protease 8 (Homo sapiens, UniProt Q96LD8); assay type: functional;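 note: luminescence read-out of SENP8 inhibition, dose-response confirmation following an ultra-high-throughput screen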
T5 sequence (Q96LD8 whole entry): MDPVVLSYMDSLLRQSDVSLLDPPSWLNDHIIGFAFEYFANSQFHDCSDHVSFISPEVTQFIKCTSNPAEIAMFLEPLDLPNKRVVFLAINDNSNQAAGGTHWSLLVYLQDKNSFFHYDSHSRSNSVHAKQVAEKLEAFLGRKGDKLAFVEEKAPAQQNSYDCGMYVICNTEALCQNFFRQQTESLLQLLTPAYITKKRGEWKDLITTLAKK

[7] = molecular target: T6, Eukaryotic translation initiation factor 2-alpha kinase 3 (Homo sapiens, UniProt Q9NZJ5); assay: Dose response cell-based high-throughput screening assay to measure PERK inhibition. [Related pubchem assays: 1416 ]; assay type: functional
T6 sequence (Q9NZJ5 whole entry): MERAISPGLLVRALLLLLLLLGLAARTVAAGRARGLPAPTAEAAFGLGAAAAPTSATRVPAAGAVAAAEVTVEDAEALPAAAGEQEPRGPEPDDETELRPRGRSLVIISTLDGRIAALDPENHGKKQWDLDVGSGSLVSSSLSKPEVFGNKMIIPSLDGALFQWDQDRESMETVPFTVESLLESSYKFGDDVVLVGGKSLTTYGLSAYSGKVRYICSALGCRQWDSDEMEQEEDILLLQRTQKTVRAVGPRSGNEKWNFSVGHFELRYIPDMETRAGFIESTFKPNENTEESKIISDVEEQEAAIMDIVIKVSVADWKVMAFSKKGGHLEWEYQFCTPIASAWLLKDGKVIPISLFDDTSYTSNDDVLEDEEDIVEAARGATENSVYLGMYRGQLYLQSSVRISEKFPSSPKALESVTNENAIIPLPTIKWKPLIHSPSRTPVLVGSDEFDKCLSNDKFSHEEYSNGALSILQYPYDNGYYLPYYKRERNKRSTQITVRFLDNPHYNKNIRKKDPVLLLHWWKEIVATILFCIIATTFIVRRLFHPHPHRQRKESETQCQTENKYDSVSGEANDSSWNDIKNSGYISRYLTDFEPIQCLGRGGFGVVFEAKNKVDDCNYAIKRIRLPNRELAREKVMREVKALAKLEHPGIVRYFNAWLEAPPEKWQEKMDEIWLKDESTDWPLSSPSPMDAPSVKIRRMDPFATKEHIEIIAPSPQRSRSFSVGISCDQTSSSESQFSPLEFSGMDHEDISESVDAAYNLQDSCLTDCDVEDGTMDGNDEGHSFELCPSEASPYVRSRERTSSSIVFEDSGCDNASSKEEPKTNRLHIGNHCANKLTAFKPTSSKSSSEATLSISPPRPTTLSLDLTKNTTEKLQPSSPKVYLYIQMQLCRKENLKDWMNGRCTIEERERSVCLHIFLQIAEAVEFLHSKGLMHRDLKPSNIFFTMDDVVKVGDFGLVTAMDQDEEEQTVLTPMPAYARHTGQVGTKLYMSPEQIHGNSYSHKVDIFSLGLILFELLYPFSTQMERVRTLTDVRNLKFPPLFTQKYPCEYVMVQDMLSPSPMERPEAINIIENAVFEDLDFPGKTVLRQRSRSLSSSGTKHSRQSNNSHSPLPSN

[8] = molecular target: T6, Eukaryotic translation initiation factor 2-alpha kinase 3; assay: Counterscreen assay for PERK inhibitors: Dose response cell-based high throughput screening assay to measure inhibition of PERK at 6 hours. [Related pubchem assays: 1522, 1416 ]; assay type: functional
[9] = inhibitors of HIV Env-driven cell fusion, dose response, cherry-pick (AID 652057); assay type: functional, cell-based
Nonstructural protein 1 = Nonstructural protein 1 (Influenza A virus, UniProt Q194T2); assay type: functional, Influenza A virus (A/California/07/2009(H1N1))
Sequence of Nonstructural protein 1 (Q194T2 whole entry): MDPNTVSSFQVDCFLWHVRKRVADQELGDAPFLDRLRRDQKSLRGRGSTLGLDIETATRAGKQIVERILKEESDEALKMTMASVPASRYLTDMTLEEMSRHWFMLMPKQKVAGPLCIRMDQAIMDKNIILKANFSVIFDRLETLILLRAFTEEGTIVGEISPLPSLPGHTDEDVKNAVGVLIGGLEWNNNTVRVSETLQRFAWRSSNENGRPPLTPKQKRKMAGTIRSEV

Compound: Oc1nc(Nc2ccccc2)sc1/C=C1\C=Nc2ccccc21
- IC50 [1]: 6.51 µM (active)
- EC50 [2]: 17.3 µM (active)
- EC50 (Streptokinase A): > 150 µM (not active)
- EC50 [3]: 17.9 µM (active)
- IC50 [4]: > 100 µM (inactive)
- IC50 (Caspase-3): 70.5 µM (active)
- EC50 (Streptococcus): 26.6 µM (active)
- EC50 [5]: 1.73 µM (active)
- IC50 [6]: > 100 µM (inactive)

Compound: Cc1cc(C(=O)N=Nc2c(O)n(C)c3ccccc23)c(C)o1
- IC50 [1]: 4.99 µM (active)
- IC50 [4]: 4.84 µM (active)
- IC50 (Caspase-3): 2.71 µM (active)
- IC50 [6]: > 100 µM (inactive)

Compound: O=[N+]([O-])c1ccc(C2NS(=O)(=O)N=C3CCCCCN32)cc1 (stereo not given)
- EC50 [7]: > 55.7 µM (not active)
- EC50 [8]: > 55.7 µM (not active)

Compound: C[C@@H]1CN([C@H](C)CO)C(=O)c2cccc(NS(=O)(=O)c3ccc(F)cc3)c2O[C@@H]1CN(C)Cc1ccc(C(F)(F)F)cc1
- AC50 [9]: < 0.26 µM (active)

Compound: O=C(CN1C(=O)COc2ccc(S(=O)(=O)N3CCOCC3)cc21)NCc1ccccn1
- EC50 [7]: > 55.7 µM (not active)
- EC50 [8]: > 55.7 µM (not active)

Compound: CN(C)c1ccc(N=Nc2cccc3ccoc23)cc1
- IC50 [1]: 3.81 µM (active)
- IC50 [4]: 8.07 µM (active)
- IC50 (Caspase-3): 14.8 µM (active)
- IC50 (Nonstructural protein 1): 39.3 µM (active)
- IC50 [6]: 8.97 µM (active)

Compound: Cc1nnc(O)nc1NCCN(C)C
- EC50 [7]: > 55.7 µM (not active)
- EC50 [8]: > 55.7 µM (not active)

Compound: CCOc1cc(C2NC(S)=NC(C)=C2C(=O)Nc2ccc(OC)cc2)ccc1O (stereo not given)
- EC50 [7]: > 55.7 µM (not active)
- EC50 [8]: > 55.7 µM (not active)

Compound: Cc1ccc(-c2cc(-c3cccc(F)c3)[nH]n2)c(O)c1
- IC50 [1]: 6.27 µM (active)
- EC50 [2]: 7.23 µM (active)
- EC50 (Streptokinase A): 21.3 µM (active)
- IC50 [4]: 12.2 µM (active)
- IC50 (Caspase-3): 47.2 µM (active)
- EC50 (Streptococcus): > 150 µM (not active)
- IC50 [6]: 23.8 µM (active)

Compound: Cn1cc([N+](=O)[O-])c(C(=O)NCc2ccco2)n1
- EC50 [7]: > 55.7 µM (not active)
- EC50 [8]: > 55.7 µM (not active)

Compound: Cc1ccc(COc2ccc(/C=N/O)cc2)cc1
- IC50 [1]: 5.63 µM (active)
- IC50 [4]: 14.6 µM (active)
- IC50 (Caspase-3): 17.2 µM (active)
- IC50 [6]: 23.5 µM (active)
